Data: ChEMBL document CHEMBL1146351, “Synthesis and biological evaluation of thiazolidine-2-one 1,1-dioxide as inhibitors of Escherichia coli beta-ketoacyl-ACP-synthase III (FabH)” (Bioorg Med Chem Lett, 2007)
Values after ≈ are worked out from the molar mass of the structure shown. Active and inactive are the calls of the source. No cut-off for these calls is given here.

Tests used:
Plasmodium falciparum = assay: Antimalarial activity against Plasmodium falciparum D6; type: functional, organism-based
Escherichia coli [1] = assay: Antibacterial activity against Escherichia coli; type: functional
[2] = target: T1, 3-oxoacyl-[acyl-carrier-protein] synthase 3 (Escherichia coli, UniProt C3TDZ2); assay: Inhibition of Escherichia coli FabH
T1 sequence (C3TDZ2 whole entry): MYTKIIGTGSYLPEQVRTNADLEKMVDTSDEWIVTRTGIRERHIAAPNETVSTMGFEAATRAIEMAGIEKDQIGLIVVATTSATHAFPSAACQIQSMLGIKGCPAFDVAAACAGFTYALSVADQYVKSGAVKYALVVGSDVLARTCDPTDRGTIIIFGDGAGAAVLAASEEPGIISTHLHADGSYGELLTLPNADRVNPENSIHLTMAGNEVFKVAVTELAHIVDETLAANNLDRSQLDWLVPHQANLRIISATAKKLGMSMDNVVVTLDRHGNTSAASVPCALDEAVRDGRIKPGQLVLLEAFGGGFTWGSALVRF

[3] = target: T2, Beta-ketoacyl-ACP-synthase III (Plasmodium falciparum) (UniProt O77078); assay: Inhibition of Plasmodium falciparum D6 KASIII at 100 uM
T2 sequence (whole entry): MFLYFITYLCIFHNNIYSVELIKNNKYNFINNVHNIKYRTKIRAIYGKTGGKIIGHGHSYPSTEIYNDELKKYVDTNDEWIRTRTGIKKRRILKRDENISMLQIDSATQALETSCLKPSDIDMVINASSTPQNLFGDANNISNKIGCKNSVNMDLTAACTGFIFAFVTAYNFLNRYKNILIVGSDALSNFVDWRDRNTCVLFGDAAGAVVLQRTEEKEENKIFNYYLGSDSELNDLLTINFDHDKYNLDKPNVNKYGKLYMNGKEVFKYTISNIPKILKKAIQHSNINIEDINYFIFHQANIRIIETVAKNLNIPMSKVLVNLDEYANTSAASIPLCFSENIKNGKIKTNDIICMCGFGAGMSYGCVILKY

[4] = target: T3, Mycobacterial beta-ketoacyl-[acyl-carrier-protein] synthase III (Mycobacterium tuberculosis) (UniProt P9WNG3); assay: Inhibition of Mycobacterium tuberculosis FabH at 100 uM
T3 sequence (whole entry): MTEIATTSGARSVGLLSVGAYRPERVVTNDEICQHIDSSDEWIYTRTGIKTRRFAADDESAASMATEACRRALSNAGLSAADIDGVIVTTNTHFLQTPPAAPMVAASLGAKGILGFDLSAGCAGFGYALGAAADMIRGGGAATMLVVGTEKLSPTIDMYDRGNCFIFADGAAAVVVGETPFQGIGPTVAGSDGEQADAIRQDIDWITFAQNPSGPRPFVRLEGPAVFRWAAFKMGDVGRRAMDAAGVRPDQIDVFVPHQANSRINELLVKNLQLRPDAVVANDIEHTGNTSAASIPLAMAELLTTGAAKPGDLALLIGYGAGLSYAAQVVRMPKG

Escherichia coli [5] = assay: Antibacterial activity against Escherichia coli expressing FabH; type: functional

Row | SMILES | IC50 (Plasmodium falciparum) [µM] | MIC (Escherichia coli [1]) [µg/mL] | IC50 [2] [µM] | Activity [3] | Activity [4] | MIC (Escherichia coli [5]) [µg/mL]
1 | O=C1N(CCc2ccccc2)CCS1(=O)=O | 21.6 | 16.5 (≈ 69 µM) | 1.9 | inactive | inactive | 
2 | O=C1SCCN1Cc1ccc(Oc2ccc(C3CCCC3)cc2)cc1 | 11.1 |  | 14.4 | inactive | inactive | 
3 | O=C1SCCN1Cc1ccc(Oc2ccccc2)cc1 | 67.1 |  | 10.9 | inactive | inactive | 
4 | CN1CCSC1=S | > 100 |  | > 100 | inactive | inactive | 
5 | S=C1SCCN1Cc1ccccc1 | 61.6 |  | > 100 | inactive | inactive | 
6 | CN1CCS(=O)(=O)C1=O | > 100 |  | > 100 | inactive | inactive | 
7 | O=C1SCCN1Cc1ccccc1 | 90.9 |  | 13.7 | inactive | inactive | 
8 | O=C1SCCN1Cc1cccnc1 | 78.4 |  | 20.7 | inactive | inactive | 
9 | O=C1N(Cc2ccc(Oc3ccccc3)cc2)CCS1(=O)=O | 49.4 |  | 0.9 | inactive | inactive | 
10 | S=C1SCCN1CCc1ccccc1 | 55.5 |  | > 100 | inactive | inactive | 
11 | O=C1N(Cc2ccc(Oc3ccc(C4CCCC4)cc3)cc2)CCS1(=O)=O | 10.8 |  | 2.4 | inactive | inactive | 
12 | S=C1SCCN1Cc1ccc(Oc2ccc(C3CCCC3)cc2)cc1 | 5.3 |  | 17.7 | inactive | inactive | 
13 | S=C1SCCN1Cc1cccnc1 | 73.4 |  | > 100 | inactive | inactive | 
14 | O=C1N(Cc2ccccc2)CCS1(=O)=O | 67.6 | 6.6 (≈ 29.3 µM) | 1.1 | inactive | inactive | 6.6 (≈ 29.3 µM)
15 | S=C1SCCN1Cc1ccc(Oc2ccccc2)cc1 | 55.6 |  | > 100 | inactive | inactive | 
16 | CCCN1CCS(=O)(=O)C1=O | > 100 |  | > 100 | inactive | inactive | 
17 | CCCN1CCSC1=S | > 100 |  | > 100 | inactive | inactive | 
